Paper doi:10.1101/2024.09.20.614104v2, “SATAY-Based Chemogenomic Screening uncovers Antifungal Resistance Mechanisms and Key Determinants of ATI-2307 and Chitosan Sensitivity” (biorxiv, 2024)

What was measured:
CaHOL1 = molecular target: T1, CaHOL1 (Candida albicans, UniProt Q5AP74); assay: LC-MS quantification of cellular uptake, hol1 deletion cells with or without CaHOL1 plasmid; assay type: cell-based; conditions: 0.003 μg/mL ATI-2307, 2 h, SC -URA 2% ethanol, 30 °C
T1 construct: gene HOL1; full-length CDS PCR-amplified from genomic DNA, expressed from plasmid pBK994 in S. cerevisiae hol1 deletion strain
T1 sequence (Q5AP74 entry or part of it): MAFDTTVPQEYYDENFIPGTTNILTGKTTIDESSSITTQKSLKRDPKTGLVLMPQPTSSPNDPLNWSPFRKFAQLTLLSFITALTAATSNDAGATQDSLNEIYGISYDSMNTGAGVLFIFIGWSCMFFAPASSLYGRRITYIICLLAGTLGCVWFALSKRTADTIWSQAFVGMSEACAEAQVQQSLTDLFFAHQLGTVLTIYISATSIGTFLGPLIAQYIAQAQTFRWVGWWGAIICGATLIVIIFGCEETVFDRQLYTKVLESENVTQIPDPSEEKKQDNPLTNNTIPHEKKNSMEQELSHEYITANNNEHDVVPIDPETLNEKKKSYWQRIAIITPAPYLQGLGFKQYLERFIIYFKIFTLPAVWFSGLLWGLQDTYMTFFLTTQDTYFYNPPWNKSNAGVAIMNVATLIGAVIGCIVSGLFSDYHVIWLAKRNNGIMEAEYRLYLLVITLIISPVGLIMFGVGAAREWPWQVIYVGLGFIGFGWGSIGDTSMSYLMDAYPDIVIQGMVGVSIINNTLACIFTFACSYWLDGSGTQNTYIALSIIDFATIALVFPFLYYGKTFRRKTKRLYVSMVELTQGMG

Hol1 = molecular target: T2, Hol1 (Saccharomyces cerevisiae, UniProt P53389); assay: LC-MS quantification of cellular uptake, wild-type versus hol1 deletion cells; assay type: cell-based; conditions: SC 2% ethanol, 30 °C, not an affinity constant
T2 construct: full-length native plasma membrane polyamine transporter in wild-type yeast; hol1 deletion strain as control
T2 sequence (P53389 whole entry): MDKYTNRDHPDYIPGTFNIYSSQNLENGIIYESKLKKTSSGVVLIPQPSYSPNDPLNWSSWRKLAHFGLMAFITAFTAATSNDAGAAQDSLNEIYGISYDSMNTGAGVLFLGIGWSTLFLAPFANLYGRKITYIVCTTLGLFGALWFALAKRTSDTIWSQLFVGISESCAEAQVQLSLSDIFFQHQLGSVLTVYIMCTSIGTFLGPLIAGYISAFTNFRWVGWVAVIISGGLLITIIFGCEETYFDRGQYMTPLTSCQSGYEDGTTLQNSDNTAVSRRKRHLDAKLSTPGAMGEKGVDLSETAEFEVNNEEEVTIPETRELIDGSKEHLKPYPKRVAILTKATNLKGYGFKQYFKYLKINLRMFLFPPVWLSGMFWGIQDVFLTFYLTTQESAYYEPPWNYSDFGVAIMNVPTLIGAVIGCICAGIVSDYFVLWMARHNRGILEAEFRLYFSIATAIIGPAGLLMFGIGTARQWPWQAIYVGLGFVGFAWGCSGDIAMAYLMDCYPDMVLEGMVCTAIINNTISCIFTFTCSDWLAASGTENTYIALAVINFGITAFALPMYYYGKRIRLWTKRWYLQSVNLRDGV

Row | Compound | LC-MS quantification of cellular uptake, hol1 deletion cells with or without CaH (CaHOL1) | uptake, μg per gram of WT pellet (Hol1; 0.003 μg/mL ATI-2307, 2 h) [μg/g pellet] | uptake, μg per gram of WT pellet (Hol1; 1 μg/mL Iminoctadine, 2 h) [μg/g pellet]
1 | N=C(N)c1ccc(OCCCC2CCN(CCCOc3ccc(C(=N)N)cc3)CC2)cc1 [ATI-2307] | heterologous expression of C. albicans HOL1 (CaHOL1) partially restored ATI-2307 uptake | 0.1 | 
2 | N=C(N)NCCCCCCCCNCCCCCCCCNC(=N)N [Iminoctadine] |  |  | 52.5
